Bounds are passed on as bounds.

For the first test, the target named is CDK2 (UniProt P24941). Kind of test: Enzyme Assay.
In general, IC50 refers to the concentration that gives 50% inhibition. The low end stands for greater potency in that assay, the high end for weaker potency in that assay. As for `Cc1cc(CNC(=O)c2n[nH]cc2NC(=O)c2c(F)cccc2F)no1`, the IC50 was < 20 µM.
Same read-out and setting: as for `O=C(NCc1ccncc1)c1n[nH]cc1NC(=O)c1c(F)cccc1F`, the figure is < 20 µM.

Another test concerns the target CDK2 (UniProt P24941). Kind of test: Enzyme Assay. This is another data set of the same source.
Consider `O=C(N[C@H]1CC[C@H](NC2CCOCC2)CC1)c1n[nH]cc1NC(=O)c1c(F)cccc1F`, for which the IC50 was < 20 µM.
Same read-out and setting: the same measure for `COc1cscc1C(=O)Nc1c[nH]nc1C(=O)N[C@H]1CC[C@H](O)CC1`: < 20 µM; for `CC(C)N1CCC(NC(=O)c2n[nH]cc2NC(=O)c2c(F)cccc2F)CC1`: < 20 µM; for `COc1ccc(F)cc1C(=O)Nc1c[nH]nc1C(=O)NC1CCN(C)CC1`: < 20 µM.
`O=C(Nc1c[nH]nc1C(=O)NC1CCNCC1)c1ccccc1OC(F)(F)F`: the IC50 was < 20 µM.
Same read-out and setting: the same measure for `CC(C)(C)C1CCC(NC(=O)c2n[nH]cc2NC(=O)c2ccc(Cl)cc2)CC1` (stereo unspecified): < 750 µM; for `C[N+]1([O-])CCC(NC(=O)c2n[nH]cc2NC(=O)c2c(F)cccc2F)CC1` (stereo unspecified): < 20 µM.
With `CN1CCN(c2cc(F)cc(C(=O)Nc3c[nH]nc3C(=O)NC3CCCCC3)c2)CC1`, the concentration for half-maximal inhibition (IC50) is < 20 µM.
On the same count and under the same terms, as for `CS(=O)(=O)N1CCC(NC(=O)c2n[nH]cc2NC(=O)c2c(F)cccc2F)CC1`, the figure is < 20 µM; as for `COc1cccc(F)c1C(=O)Nc1c[nH]nc1C(=O)NC1CCN(C(=O)OC(C)(C)C)CC1`, < 20 µM.
For `Cc1onc(-c2ccccc2)c1C(=O)Nc1c[nH]nc1C(=O)NC1CCNCC1`, the half-maximal inhibitory concentration (IC50) is < 750 µM.
Still for that read-out and setting: as for `O=C(N[C@H]1CCCNC1)c1n[nH]cc1NC(=O)c1c(Cl)cccc1Cl`, the figure is < 20 µM; as for `O=C(Nc1c[nH]nc1C(=O)NC1CCNCC1)c1ccccc1OC(F)F`, < 20 µM; as for `N[C@H]1CC[C@H](NC(=O)c2n[nH]cc2NC(=O)c2c(F)cccc2F)CC1`, < 20 µM.
Same read-out and setting: the same measure for `O=C(Nc1ccccc1)Nc1c[nH]nc1C(=O)N[C@H]1CC[C@H](O)CC1`: < 20 µM.
Same read-out and setting: the same measure for `CN(C)[C@H]1CC[C@H](NC(=O)c2n[nH]cc2NC(=O)c2c(F)cccc2F)CC1`: < 20 µM; for `CC(C)(C)OC(=O)N1CCC(NC(=O)c2n[nH]cc2NC(=O)c2c(F)cc(F)cc2F)CC1`: < 20 µM; for `O=C(NC1CCN(CC2CC2)CC1)c1n[nH]cc1NC(=O)c1c(F)cccc1F`: < 20 µM.
For `O=C(Nc1c[nH]nc1C(=O)NC1CCNCC1)c1ccccc1OCc1ccccc1`, the IC50 is < 20 µM.
Same read-out and setting: as for `O=C(N[C@H]1CC[C@H](O)CC1)c1n[nH]cc1NC(=O)c1c(F)cccc1Cl`, the figure is < 20 µM.
Still for that read-out and setting: as for `CC(C)(C)NC(=O)Nc1c[nH]nc1C(=O)NCC1CC1`, the figure is < 20 µM.
Still for that read-out and setting: as for `CN1CCC(NC(=O)c2n[nH]cc2NC(=O)c2cccc3c2OCCO3)CC1`, the figure is < 20 µM; as for `CO[C@H]1CC[C@H](NC(=O)c2n[nH]cc2NC(=O)c2c(Cl)cccc2Cl)CC1`, < 20 µM.
`CC(C)(C)N1CCC(NC(=O)c2n[nH]cc2NC(=O)c2c(F)cccc2F)CC1`: the IC50 was < 20 µM.
As for `O=C(NC1CCN(CC2CCOC2)CC1)c1n[nH]cc1NC(=O)c1c(F)cccc1F` (stereo unspecified), the IC50 is < 20 µM.
On to `O=C(NC[C@H]1CC[C@H](NC(=O)c2n[nH]cc2NC(=O)c2c(F)cccc2F)CC1)OCc1ccccc1`, for which the IC50 is < 20 µM.
On the same count and under the same terms, as for `COc1cccc(F)c1C(=O)Nc1c[nH]nc1C(=O)NC1CCN(C)CC1`, the figure is < 20 µM; as for `O=C(NCc1ccccc1)Nc1c[nH]nc1C(=O)N[C@H]1CC[C@H](O)CC1`, < 750 µM.
Take `CC(C)(C)C1CCC(NC(=O)c2n[nH]cc2NC(=O)c2ccc(OC(F)F)cc2)CC1` (stereo unspecified): the IC50 was < 750 µM.
As for `O=C(N[C@H]1CC[C@@H](NC2CCOCC2)CC1)c1n[nH]cc1NC(=O)c1c(F)cccc1F`, the IC50 is < 20 µM.
Turning to `COc1cccc(F)c1C(=O)Nc1c[nH]nc1C(=O)NC1CCNCC1`, the IC50 was < 20 µM.
On the same count and under the same terms, the same measure for `O=C(N[C@H]1CCCNC1)c1n[nH]cc1NC(=O)c1c(F)cccc1F`: < 20 µM; for `CS(=O)(=O)NC[C@H]1CC[C@H](NC(=O)c2n[nH]cc2NC(=O)c2c(F)cccc2F)CC1`: < 20 µM.
Still for that read-out and setting: as for `Cc1cc(CNC(=O)c2n[nH]cc2NC(=O)c2c(F)cccc2F)no1`, the figure is < 20 µM; as for `O=C(N[C@H]1CC[C@H](O)CC1)c1n[nH]cc1NC(=O)c1c(F)cccc1F`, < 20 µM.
Regarding `O=C(Nc1c[nH]nc1C(=O)NCC1CC1)c1ccc(N2CCOCC2)cc1Cl`, the IC50 was < 20 µM.
With `COCCN1CCC(NC(=O)c2n[nH]cc2NC(=O)c2c(Cl)cccc2Cl)CC1`, the half-inhibitory concentration (IC50) was < 20 µM.
On the same count and under the same terms, the same measure for `CN1CCC(NC(=O)c2n[nH]cc2NC(=O)c2ccccc2OC(C)(C)C)CC1`: < 20 µM; for `COc1ccccc1C(=O)Nc1c[nH]nc1C(=O)NC1CCNCC1`: < 20 µM; for `CC(C)(C)C1CCC(NC(=O)c2n[nH]cc2NC(=O)c2ccc(F)cc2)CC1` (stereo unspecified): < 750 µM.
On the same count and under the same terms, the same measure for `O=C(Nc1c[nH]nc1C(=O)NC1CCNCC1)c1cc(-c2ccccc2)cs1`: < 20 µM; for `O=C(Nc1c[nH]nc1C(=O)NC1CCNCC1)c1ccc(OC(F)F)cc1`: < 20 µM.
In the case of `CN1CCC(NC(=O)c2n[nH]cc2NC(=O)c2ccccc2Cl)CC1`, the concentration for half-maximal inhibition (IC50) was < 20 µM.
Consider `O=C(NCC1CCNCC1)c1n[nH]cc1NC(=O)c1c(F)cccc1F`, for which the IC50 was < 20 µM.
In the case of `COCCN1CCC(NC(=O)c2n[nH]cc2NC(=O)c2c(F)cccc2F)CC1`, the 50% inhibitory concentration (IC50) is < 20 µM.
The same measure, in the same setting: as for `O=C(Nc1c[nH]nc1C(=O)NC1CCNCC1)c1cc(F)cc(F)c1`, the figure is < 20 µM; as for `O=C(NC1CCN(c2ccccn2)CC1)c1n[nH]cc1NC(=O)c1c(F)cccc1F`, < 20 µM; as for `CC(C)(C)C1CCC(NC(=O)c2n[nH]cc2NC(=O)c2ccc(CN3CCCC3)o2)CC1` (stereo unspecified), < 20 µM.
On to `O=C(NCc1ccncc1)c1n[nH]cc1NC(=O)c1c(F)cccc1F`, for which the half-inhibitory concentration (IC50) is < 20 µM.
Same read-out and setting: as for `CN1CCC(NC(=O)c2n[nH]cc2NC(=O)c2c(Cl)cccc2Cl)CC1`, the figure is < 20 µM; as for `O=C(NC1CCN(c2ncccn2)CC1)c1n[nH]cc1NC(=O)c1c(F)cccc1F`, < 20 µM.
As to `CO[C@H]1CC[C@H](NC(=O)c2n[nH]cc2NC(=O)c2c(F)cccc2F)CC1`, the IC50 was < 20 µM.
For the compound `O=C(NCc1cccnc1)c1n[nH]cc1NC(=O)c1c(F)cccc1F`, the IC50 is < 20 µM.
On the same count and under the same terms, the same measure for `O=C(Nc1c[nH]nc1C(=O)NC1CCNCC1)c1ccccc1N1CCOCC1`: < 20 µM; for `O=C(Nc1c[nH]nc1C(=O)NC1CCNCC1)c1ccccc1Br`: < 20 µM.
Same read-out and setting: as for `COc1ccccc1C(=O)Nc1c[nH]nc1C(=O)N[C@H]1CC[C@H](O)CC1`, the figure is < 20 µM; as for `O=C(Nc1c[nH]nc1C(=O)NCC1CC1)c1cccc2c1OCCO2`, < 20 µM.
The same measure, in the same setting: the same measure for `O=C(N[C@H]1CC[C@H](N2CCS(=O)(=O)CC2)CC1)c1n[nH]cc1NC(=O)c1c(F)cccc1F`: < 20 µM; for `O=C(NC1CCN(CC(F)(F)F)CC1)c1n[nH]cc1NC(=O)c1c(F)cccc1F`: < 20 µM.
In the case of `O=C(NC1CCC(CO)CC1)c1n[nH]cc1NC(=O)c1c(F)cccc1F` (stereo unspecified), the 50% inhibitory concentration (IC50) is < 20 µM.
On the same count and under the same terms, the same measure for `O=C(Nc1c[nH]nc1C(=O)NC1CCNCC1)c1ccc(Cl)cc1`: < 20 µM; for `O=C(NC1CCN(c2cccc(Cl)n2)CC1)c1n[nH]cc1NC(=O)c1c(F)cccc1F`: < 20 µM.
With `O=C1CC[C@H](NC(=O)c2n[nH]cc2NC(=O)c2c(F)cccc2F)CN1`, the concentration for half-maximal inhibition (IC50) was < 20 µM.
Consider `O=C(NC1CCC(N2CCSCC2)CC1)c1n[nH]cc1NC(=O)c1c(F)cccc1F` (stereo unspecified), for which the IC50 was < 20 µM.
For `COc1cccc(F)c1C(=O)Nc1c[nH]nc1C(=O)N[C@H]1CC[C@H](O)CC1`, the IC50 was < 20 µM.
Regarding `Cc1ccc(C(=O)Nc2c[nH]nc2C(=O)NC2CCN(C)CC2)cc1`, the IC50 was < 20 µM.
Consider `O=C(N[C@@H]1CCNC1)c1n[nH]cc1NC(=O)c1c(F)cccc1F`, for which the IC50 was < 20 µM.
On the same count and under the same terms, as for `CN1CCC(NC(=O)c2n[nH]cc2NC(=O)c2cccc(Cl)c2Cl)CC1`, the figure is < 20 µM; as for `O=C(NCc1ccco1)c1n[nH]cc1NC(=O)c1c(F)cccc1F`, < 20 µM.
Same read-out and setting: the same measure for `CC(C)(C)OC(=O)N1CCC(NC(=O)c2n[nH]cc2NC(=O)c2ccc(F)cc2)CC1`: < 20 µM; for `O=C(Nc1c[nH]nc1C(=O)NC1CCNCC1)c1ccccc1`: < 750 µM.
Still for that read-out and setting: the same measure for `CC1CCC(NC(=O)c2n[nH]cc2NC(=O)c2c(F)cccc2F)CC1` (stereo unspecified): < 20 µM; for `CC(C)(C)C1CCC(NC(=O)c2n[nH]cc2NC(=O)c2cc(F)cc(F)c2)CC1` (stereo unspecified): < 750 µM.
In the case of `O=C(NC1CCNCC1)c1n[nH]cc1NC(=O)c1c(F)cc(F)cc1F`, the half-inhibitory concentration (IC50) is < 20 µM.
On the same count and under the same terms, the same measure for `O=C(NC1CCNCC1)c1n[nH]cc1NC(=O)c1c(F)cccc1Cl`: < 20 µM.
On the same count and under the same terms, the same measure for `CC(C)(C)CNC(=O)Nc1c[nH]nc1C(=O)N[C@H]1CC[C@H](O)CC1`: < 20 µM; for `CN1CCC(NC(=O)Nc2c[nH]nc2C(=O)N[C@H]2CC[C@H](O)CC2)CC1`: < 20 µM.
Still for that read-out and setting: the same measure for `CC(C)(C)C1CCC(NC(=O)c2n[nH]cc2NC(=O)c2ccc(CN3CCOCC3)o2)CC1` (stereo unspecified): < 20 µM; for `CN1CCN([C@H]2CC[C@@H](NC(=O)c3n[nH]cc3NC(=O)c3c(F)cccc3F)CC2)CC1`: < 20 µM.
For the compound `O=C(N[C@H]1CC[C@H](O)CC1)c1n[nH]cc1NC(=O)N1CCOCC1`, the half-inhibitory concentration (IC50) was < 750 µM.
The same measure, in the same setting: the same measure for `CN1CCN([C@H]2CC[C@H](NC(=O)c3n[nH]cc3NC(=O)c3c(F)cccc3F)CC2)CC1`: < 20 µM.
The same measure, in the same setting: the same measure for `CN1CCC(C(=O)Nc2c[nH]nc2C(=O)NCC2CC2)CC1`: < 20 µM; for `O=C(NC1CCNCC1)c1n[nH]cc1NC(=O)c1c(Cl)cncc1Cl`: < 20 µM; for `CN1CCC(NC(=O)c2n[nH]cc2NC(=O)c2cc(Cl)ccc2Cl)CC1`: < 20 µM.
Still for that read-out and setting: the same measure for `O=C(N[C@H]1CC[C@H](N2CCOCC2)CC1)c1n[nH]cc1NC(=O)c1c(F)cccc1F`: < 20 µM; for `O=C(Nc1c[nH]nc1C(=O)N[C@H]1CC[C@H](O)CC1)c1cccc2c1OCCO2`: < 20 µM.
Regarding `CC(NC(=O)c1n[nH]cc1NC(=O)c1c(F)cccc1F)c1ccccc1` (stereo unspecified), the concentration for half-maximal inhibition (IC50) was < 20 µM.
Same read-out and setting: as for `CC(C)(C)C1CCC(NC(=O)c2n[nH]cc2NC(=O)c2ccccc2)CC1` (stereo unspecified), the figure is < 750 µM.
The same measure, in the same setting: the same measure for `O=C(N[C@H]1CC[C@@H](N2CCOCC2)CC1)c1n[nH]cc1NC(=O)c1c(F)cccc1F`: < 20 µM.
